Laboratory results from patent publication US12275687B2 (priority 2017, dated 2025).

How the values were obtained:
BLT1-T4L [1] = assay: Competition assay of ligands against ^3H-LTB4, BLT1-T4L expressed in P. pastoris; type: binding, guinea pig; details: for logIC50: log value (negative)
Description: (§1) For the ligand binding assay of BLT1-T4Ls, the T4L cDNA was integrated into the cDNA, encoding the newly generated thermostable BLT1 mutant with the additional mutation V212A, by the consensus method (residues 1-14 deleted and H83G/K88G/V212A/S309A mutations), with the α-factor PrePro signal sequence and the FLAG tag at the N-terminal, and the PreScission site and the His6 tag at the C-terminal of BLT1 (Hori T. et al., 2010, supra) in the pPIC3.5K vector, using the In-Fusion enzyme (FIG. 7A). The expression vectors were introduced into the yeast Pichia pastoris using an EasyComp kit (Thermo Fisher Scientific). BLT1-T4Ls were expressed in 10 ml cultures, and the membrane fraction was prepared as described previously (Hori T. et al., 2010, supra; Hon T. et al., 2015, supra).
(§2) For the evaluation of the ligand-binding activity of the BLT1 mutants and BLT1-T4Ls, a ^3H-LTB4 binding assay was performed using the BLT1-expressing membrane fractions of COS-7, HEK293, or P. pastoris cells, as described previously (Hori T. et al., 2010, supra; Hori T. et al., 2015, supra). For the evaluation of the thermostability, the membrane fraction was heat-treated before the ^3H-LTB4 binding assay.

BLT1 [2] = biological target: T1, BLT1 (Cavia porcellus, UniProt H0VYV8); assay: Saturation binding assay of ^3H-LTB4 and BLT1 with various concentrations of benzamidine; set-up: expressed in transfected cells; host or cells: HEK293 (membrane fraction); species or system guinea pig; details: equilibrium dissociation constant of ^3H-LTB4, global fitting with benzamidine
Experimental: Each point (±s.e.m.) indicates the mean value of three independent experiments, each with triplicate reactions. […] Each point (±s.e.m.) indicates the mean value of three independent experiments, each with triplicate reactions. […] Each point (±s.e.m.) indicates the mean value of triplicate reactions. For the evaluation of the ligand-binding activity of the BLT1 mutants and BLT1-[…], a ^3H-LTB4 binding assay was performed using the BLT1-expressing membrane fractions of COS-7, HEK293, or P. pastoris cells, as described previously (Hori T. et al., 2010, supra; Hori T. et al., 2015, supra). For the evaluation of the thermostability, the membrane fraction was heat-treated before the ^3H-LTB4 binding assay.

BLT1 [3] = biological target: T1, BLT1; assay: TGFα shedding assay with benzamidine (G-protein activation by LTB4); type: cell-based; set-up: expressed in transfected cells; details: for logτA: agonist signaling efficacy; for KA / logKA: equilibrium dissociation constant of LTB4; for logKA: log value as printed; for Em: maximum possible signal response
Experimental: Each point (±s.e.m.) indicates the mean value of three independent experiments, each with triplicate reactions. […] Each point (±s.e.m.) indicates the mean value of three independent experiments, each with triplicate reactions. […] Each point (±s.e.m.) indicates the mean value of triplicate reactions. […] To determine the parameters, three steps of fitting procedures were performed.

BLT1-T4L [4] = assay: Saturation binding of ^3H-LTB4, BLT1-T4L expressed in P. pastoris (membrane fraction); set-up: species or system guinea pig; details: saturation binding of ^3H-LTB4, ICL3-10 construct
Description: as §1, §2

T1 sequence (H0VYV8 1-348): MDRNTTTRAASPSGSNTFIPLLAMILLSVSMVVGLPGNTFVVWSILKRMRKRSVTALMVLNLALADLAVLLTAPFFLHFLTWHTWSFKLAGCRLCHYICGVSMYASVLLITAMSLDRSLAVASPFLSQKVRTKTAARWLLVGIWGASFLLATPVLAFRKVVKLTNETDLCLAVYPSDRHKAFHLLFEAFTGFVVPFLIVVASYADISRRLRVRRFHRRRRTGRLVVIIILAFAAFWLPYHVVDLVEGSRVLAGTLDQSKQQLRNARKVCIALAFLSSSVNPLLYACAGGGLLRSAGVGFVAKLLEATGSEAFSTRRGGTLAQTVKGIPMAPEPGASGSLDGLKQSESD

Row | SMILES | Ki (BLT1-T4L [1]) [nM] | logIC50 (BLT1-T4L [1]) | Kd (BLT1 [2]) [nM] | logτA (BLT1 [3]; G16, Em = 20) | KA (BLT1 [3]; G16) | logKA (BLT1 [3]; G16) | Em (BLT1 [3]; G16) | logτA (BLT1 [3]; Gq/i1, in n = 1, Em = 25) | KA (BLT1 [3]; Gq/i1) | logKA (BLT1 [3]; Gq/i1) | Em (BLT1 [3]; Gq/i1) | Kd (BLT1-T4L [4]) [nM]
1 | CCOC(=O)NC(=N)c1ccc(OCc2cccc(COc3ccc(C(C)(C)c4ccc(O)cc4)cc3)c2)cc1 | 148 | −6.7 |  |  |  |  |  |  |  |  |  | 
2 | CCCCC/C=C\C[C@@H](O)/C=C/C=C/C=C\[C@@H](O)CCCC(=O)O [LTB4, leukotriene B4] | 0.67 | −9.0 | 0.6 | 0.076 | (KA = 9.2 nM) | −8.0 | 27.6 | 0.82 | (KA = 24 nM) | −7.6 | 26.7 | 1.2 ± 0.1
